Results as given in patent US4599360A, “Ophthalmic anti-inflammatory agents” (Sankyo Company Limited, priority 1983, dated 1986).

Key:
eye [1] = conditions: cited from earlier work
eye [2] = test: Eye irritation test (Draize method, evaluated by method of Kay and Calandra); type: in vivo, male Japanese rabbit; parameters: key: Draize irritation scores per Kay–Calandra method, mean of 4 rabbits
Protocol: The irritation to the eyes caused by relatively highly concentrated solutions of the compounds of the invention was determined by the Draize method [J. H. Draize et al. J. Pharmacol. Exp. Ther., 82, 377 (1944)] and evaluated by the method of Kay and Calandra [J. H. Kay and J. C. Calandra, J. Soc. Cosmet. Chem., 13, 281 (1962)].
The test solution employed in the present experiment was a simple solution of 10% or 20% by weight of the test compound dissolved in distilled water for injections and adjusted to pH 7 to 8 as required.
Specifically, a male Japanese rabbit of body weight 2.5-3.0 kg was placed in a pillory to fix its head. A single dose of 0.1 ml of the test solution was instilled into its right eye. The symptoms experienced by the anterior portion of the right eye were observed over a period of seven days and the irritation observed was scored. The results are shown in Table 2, in each case averaged over the four rabbits in each test group.

[3] = result in words; cited from earlier work
[4] = Acute toxicity, oral administration; parameters: species or system RFVL type mice; conditions: mouse, in vivo

SMILES: CCCCC1C(=O)N(c2ccccc2)N(c2ccccc2)C1=O [phenylbutazone]
- adverse effects upon the eye reported in the literature (eye [1]): conjunctivitis, toxic amblyopia, Stevens-Johnson syndrome, adhesion of lids to eyeballs, gross scarring of lids, corneal ulceration and scarring, vascularisation of the cornea, loss of vision and possible retinal haemorrhage

SMILES: CC(C(=O)[O-])c1ccc(C=C2CCCCC2=O)cc1.[Na+] (stereo not shown) [Compound B, sodium 2-[4-(2-oxocyclohexylidenemethyl)phenyl]propionate]
- Average irritation score, average (eye [2]; 10% solution, 0.1 ml, 1 hour): 1.3
- Average irritation score, conjunctiva (eye [2]; 10% solution, 0.1 ml, 1 hour): 1.3
- Average irritation score, cornea (eye [2]; 10% solution, 0.1 ml, 1 hour): 0
- Average irritation score, iris (eye [2]; 10% solution, 0.1 ml, 1 hour): 0
- Average irritation score, average (eye [2]; 10% solution, 0.1 ml, 24 hours): 0
- Average irritation score, conjunctiva (eye [2]; 10% solution, 0.1 ml, 24 hours): 0
- Average irritation score, cornea (eye [2]; 10% solution, 0.1 ml, 24 hours): 0
- Average irritation score, iris (eye [2]; 10% solution, 0.1 ml, 24 hours): 0
- Average irritation score, average (eye [2]; 10% solution, 0.1 ml, 48 hours): 0
- Average irritation score, conjunctiva (eye [2]; 10% solution, 0.1 ml, 48 hours): 0
- Average irritation score, cornea (eye [2]; 10% solution, 0.1 ml, 48 hours): 0
- Average irritation score, iris (eye [2]; 10% solution, 0.1 ml, 48 hours): 0
- Average irritation score, average (eye [2]; 10% solution, 0.1 ml, 72 hours): 0
- Average irritation score, conjunctiva (eye [2]; 10% solution, 0.1 ml, 72 hours): 0
- Average irritation score, cornea (eye [2]; 10% solution, 0.1 ml, 72 hours): 0
- Average irritation score, iris (eye [2]; 10% solution, 0.1 ml, 72 hours): 0
- Average irritation score, average (eye [2]; 10% solution, 0.1 ml, 96 hours): 0
- Average irritation score, conjunctiva (eye [2]; 10% solution, 0.1 ml, 96 hours): 0
- Average irritation score, cornea (eye [2]; 10% solution, 0.1 ml, 96 hours): 0
- Average irritation score, iris (eye [2]; 10% solution, 0.1 ml, 96 hours): 0
- Average irritation score, average (eye [2]; 10% solution, 0.1 ml, 7 days): 0
- Average irritation score, conjunctiva (eye [2]; 10% solution, 0.1 ml, 7 days): 0
- Average irritation score, cornea (eye [2]; 10% solution, 0.1 ml, 7 days): 0
- Average irritation score, iris (eye [2]; 10% solution, 0.1 ml, 7 days): 0

SMILES: COC(=O)c1ccccc1O [methyl salicylate]
- toxicity for internal administration [3]: too toxic for internal administration

SMILES: CC(C(=O)[O-])c1ccc(CC2CCCC2=O)cc1.[Na+] (stereo not shown)
- LD50 ([4]; female mice): 3150 mg/kg
- LD50 ([4]; male mice): 3030 mg/kg
- Average irritation score, cornea (eye [2]; rabbit, in vivo): 0
- Average irritation score, iris (eye [2]; rabbit, in vivo): 0

SMILES: CC(C)Cc1ccc(C(C)C(=O)O)cc1 (stereo not shown) [Ibuprofen, ibuprofen]
- adverse effects upon the eye reported in the literature (eye [1]): a variety of visual defects, including toxic amblyopia

SMILES: CC(C(=O)[O-])c1ccc(C[C@@H]2CCC[C@H]2O)cc1.[Na+] (relative stereo)
- Average irritation score, average (eye [2]; 10% solution, 0.1 ml, 1 hour): 1.3
- Average irritation score, conjunctiva (eye [2]; 10% solution, 0.1 ml, 1 hour): 1.3
- Average irritation score, cornea (eye [2]; 10% solution, 0.1 ml, 1 hour): 0
- Average irritation score, iris (eye [2]; 10% solution, 0.1 ml, 1 hour): 0
- Average irritation score, average (eye [2]; 10% solution, 0.1 ml, 24 hours): 0
- Average irritation score, conjunctiva (eye [2]; 10% solution, 0.1 ml, 24 hours): 0
- Average irritation score, cornea (eye [2]; 10% solution, 0.1 ml, 24 hours): 0
- Average irritation score, iris (eye [2]; 10% solution, 0.1 ml, 24 hours): 0
- Average irritation score, average (eye [2]; 10% solution, 0.1 ml, 48 hours): 0
- Average irritation score, conjunctiva (eye [2]; 10% solution, 0.1 ml, 48 hours): 0
- Average irritation score, cornea (eye [2]; 10% solution, 0.1 ml, 48 hours): 0
- Average irritation score, iris (eye [2]; 10% solution, 0.1 ml, 48 hours): 0
- Average irritation score, average (eye [2]; 10% solution, 0.1 ml, 72 hours): 0
- Average irritation score, conjunctiva (eye [2]; 10% solution, 0.1 ml, 72 hours): 0
- Average irritation score, cornea (eye [2]; 10% solution, 0.1 ml, 72 hours): 0
- Average irritation score, iris (eye [2]; 10% solution, 0.1 ml, 72 hours): 0
- Average irritation score, average (eye [2]; 10% solution, 0.1 ml, 96 hours): 0
- Average irritation score, conjunctiva (eye [2]; 10% solution, 0.1 ml, 96 hours): 0
- Average irritation score, cornea (eye [2]; 10% solution, 0.1 ml, 96 hours): 0
- Average irritation score, iris (eye [2]; 10% solution, 0.1 ml, 96 hours): 0
- Average irritation score, average (eye [2]; 10% solution, 0.1 ml, 7 days): 0
- Average irritation score, conjunctiva (eye [2]; 10% solution, 0.1 ml, 7 days): 0
- Average irritation score, cornea (eye [2]; 10% solution, 0.1 ml, 7 days): 0
- Average irritation score, iris (eye [2]; 10% solution, 0.1 ml, 7 days): 0
